Experimental data published in patent US12263248B2, “Compounds and compositions for intracellular delivery of therapeutic agents” (ModernaTX, Inc., priority 2018, dated 2025).

Columns and labels:
[1] = Particle size and polydispersity index of nanoparticle compositions (Zetasizer Nano ZS); format: physicochemical
How it was run: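 Values are size and PDI readings from a Zetasizer Nano ZS. Measurements are taken in 1×PBS; zeta potential, by contrast, uses 15 mM PBS.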

[2] = Encapsulation efficiency of RNA (QUANT-IT RIBOGREEN RNA assay); format: physicochemical
How it was run: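 RiboGreen fluorescence (ex ~480, em ~520 nm) compared between intact samples and Triton X-100-lysed samples after 15 min at 37 °C in TE buffer, pH 7.5. Percent free RNA is the blank-corrected intact/disrupted ratio.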

[3] = Apparent (surface) pKa of the LNP formulation (TNS assay); format: physicochemical; details: for pKa: Table 1A; for App. pKa: Table 3F
How it was run: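 Fluorescence of TNS probe added to LNP samples (mRNA 0.04 mg/mL) was read across 21 buffers of pH about 3-12, triplicate per pH. The inflection point of the sigmoidal fluorescence-vs-pH curve, […], gives apparent pKa; method validated in 1× PBS and Tris/sucrose buffer.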

luciferase (Luc) mRNA [4] = assay: Luc expression, whole body bioluminescence after intravenous administration to mice; format: in vivo; details: Table 3E; intravenous
How it was run: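 Bioluminescence, read as region-of-interest total flux at 3, 6 and 24 h, followed a single 0.5 mg/kg intravenous dose of Luc mRNA-loaded nanoparticles in mice (n=6). Luciferin substrate (200 μL, 15 mg/mL in PBS) was injected intraperitoneally into CD-1 mice 15 minutes ahead of each imaging point.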

[5] = Lipid clearance: lipid level in mouse liver tissue (LC-MS/MS); format: in vivo; details: Table 3E, mouse liver
hEPO mRNA [6] = assay: hEPO expression after subcutaneous administration to mice; format: in vivo, female CD-1 mice; details: for hEPO expression Lipid/Compound 18 ratio, 6 hr. / hEPO expression Lipid/Compound 18 ratio, AUC: 0.5 mpk; for Novel lipid/MC3 expression ratio, 6 hr. time point, s.c. hEPO 0.5 mpk: relative to MC3
Method: (§1) The effect of the lipids of the disclosure on protein expression upon subcutaneous administration was studied. Formulations containing lipids of the disclosure and an mRNA expressing luciferase or hEPO were administered subcutaneously to female CD-1 mice at 0.5 mpk. Expression levels were obtained via whole body luminescent imaging (BLI) at 3, 6 and 24 hours after injection and expression levels in liver, spleen and at the injection site were evaluated ex vivo after 24 hours. […] See also Tables 35 and 36, and FIGS. 19 and 27.
Table 36 summarizes the hEPO expression levels using various nanoparticle compositions of the disclosure as compared to the hEPO expression level using a formulation containing MC3 or Compound 18, following subcutaneous administration, as described above.

luciferase (Luc) mRNA [7] = assay: Luc expression (total flux) after intramuscular administration; format: in vivo, mice; details: for i.m. Lipid/MC3 0.01 mpk, Luc, 6 h: Table 3B; for Novel lipid/MC3 expression ratio, 6 hr. time point, i.m. Luc: intramuscular, relative to MC3 formulation
How it was run: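 Total-flux luciferase signal in mice after one intramuscular injection. Nanoparticle formulations contained modified Luc mRNA, either alone or co-dosed with H10 mRNA (e.g., 0.0005 or 0.005 mpk of each), giving 0.001 or 0.01 mpk.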

luciferase mRNA = assay: Luciferase expression after subcutaneous administration to mice; format: in vivo, female CD-1 mice; details: 0.5 mpk, relative to MC3
Method: as §1
Table 35 summarizes the luciferase expression levels using various nanoparticle compositions of the disclosure, and the luciferase expression levels using various nanoparticle compositions of the disclosure as compared to the luciferase expression level using an MC3 formulation after subcutaneous administration, as described above.

hEPO mRNA [8] = assay: hEPO expression after intramuscular administration to mice; format: in vivo; details: Table 3I, hEPO
Method: The expression of hEPO and cytokine induction in mice intravenously administered a nanoparticle composition at a dose of 0.5 mpk were measured at 3, 6, and 24 hours. […] The expression of hEPO in mice intramuscularly administered a nanoparticle composition from Table 1B at a dose of 0.01 mpk were measured at 3, 6, and 24 hours.
(§2) Blood collection and analysis for hEPO. Blood was collected from mice or rats via the tail vein and hEPO concentrations were determined using a hEPO ELISA assay.

hEPO mRNA [9] = assay: hEPO expression after intravenous administration to rats; format: in vivo, rat; details: Table 19B
Method: The expression of hEPO and cytokine induction in rats intravenously administered a nanoparticle composition at a dose of 2.0 mpk was measured at 6 h.
(§3) The expression of hEPO in rats intravenously administered a nanoparticle composition at a dose of 0.2 mpk or 2.0 mpk was measured at 6 hours. Table 16 summarize the ratio of hEPO expression levels using various nanoparticle compositions as compared to the hEPO expression level using MC3 formulation and the lipid levels in the liver measured 48 hours after administration, as described above. Tables 17 and 18 summarize the lipid levels in the liver and spleen measured 48 hours after administration of Compounds 28, 33, 53, and 54. Liver and spleen levels represent the average values calculated for 3 rats in each group. As is shown in Tables 17 and 18, less than 10% of Compounds 28, 33, 53, and 54 remained in the liver after 48 hours, while greater than 60% of MC3 remained.
The expression of hEPO induced by intravenous administration to rats of nanoparticle compositions at various doses was measured at 2, 4, 6, 8, 24, and 48 hour time points. FIGS. 3-6 respectively summarize the hEPO expression measured upon intravenous administration of formulations including Compounds 26, 18, 25, and MC3 to rat at various doses. The lipid levels of Compound 26 in the liver after 48 hours were about 19%.
(§4) 005781 The expression of hEPO and lipid levels in the liver and spleen in rats intravenously administered a nanoparticle composition at a dose of 0.2 mpk was measured at various time points. Compounds 18 and 25 were selected for comparison with MC3. Lipids were formulated according to the standard MC3 formulation described above. Rats were administered intravenously a single 0.2 mpk dose and expression monitored at 0.25, 0.5, 1, 2, 4, 8, 24, and 48 hours after administration.
as §2

[10] = Residual lipid levels in rat liver and spleen (UPLC-MS); format: in vivo; details: Table 19B, liver, 24 h
Method: At 48 h liver tissue was harvested for lipid quantification. To pre-weighed tissues, Milli-Q water was added (900 μL water per 100 mg tissue). Tissues were homogenized using an Omni probe homogenizer until uniform. 50 μL of samples and matrix calibration standards were aliquoted into a 96-well plate. 50 μL of blank matrix for matrix blanks and control blanks were aliquoted. 400 μL is spiking solution were manually added to all samples except matrix blanks. 400 μL of 50:50 ACN:IPA were manually added to matrix blanks. The plate was covered and the samples vortexed and centrifuged for 5 minutes at >3000 rpm. 200 μL of the samples were transferred into a clean 96-well plate for analysis. Samples were analyzed on a Waters Acquity UPLC using a Higgins Analytical Clipeus C8 column ([…], 30×2.1 mm) and a gradient of either 70-95% or 60-95% (Mobile Phase A: 5 mM ammonium formate in 50:50:1 H2O:MeOH:formic acid; Mobile Phase B: 5 mM ammonium formate in 100:1 MeOH:formic acid) over 1.3 min at 1.2 mL/min (column temperature 55° C.). Detection was based on electrospray ionization (ESI) in positive mode using a Sciex API5500 Mass Spectrometer.
as §3, §4

[11] = Table 1D, for subcutaneous administration, # formulated with hEPO mRNA
[12] = Table 1A, lipid:DSPC:cholesterol:PEG-DMG 50:10:38.5:1.5 mol %
[13] = Table 1E, compositions for subcutaneous administration
[14] = Table 1B, formulated with hEPO mRNA

Structure (SMILES)	PDI [1, 11]	Size (nm) [1, 11] [nm]	EE (%) ([2]; Table 1A)	% EE [2, 11] [%]	pKa [3]	% Remaining dose at 6 h [5] [%]	% Remaining dose at 24 h [5] [%]	PDI ([1]; Table 1A)	Size (nm) [1, 12] [nm]	App. pKa [3]	6 h BLI Lipid/MC3 (luciferase (Luc) mRNA [4])	hEPO expression Lipid/Compound 18 ratio, 6 hr. (hEPO mRNA [6])	hEPO expression Lipid/Compound 18 ratio, AUC (hEPO mRNA [6])	i.m. Lipid/MC3 0.01 mpk, Luc, 6 h (luciferase (Luc) mRNA [7])	Lipid/MC3 6 h timepoint (hEPO mRNA [8])	Lipid/MC3 AUC (hEPO mRNA [8])	also measured
CCCCCCCCCC(=O)OC(C)CCCCCCN(CCO)CCCCCCCC(=O)OC(CCCCCCCC)CCCCCCCC (centres unmarked) [Compound 98, 8-((8-(Heptadecan-9-yloxy)-8-oxooctyl)(2-hydroxyethyl)amino)octan-2-yl decanoate]	0.14	74.8	94.4	93.8	6.53	26.8	14.7	–	–	–	3.16	0.69	0.69	–	–	–	–
CCCCCCCCCOC(=O)C(C)CCCCCCN(CCO)CCCCCCCOC(=O)C(CCCCCCCC)CCCCCCCC (centres unmarked) [Compound 163, 7-((2-Hydroxyethyl)(7-methyl-8-(nonyloxy)-8-oxooctyl)amino)heptyl 2-octyldecanoate]	0.10	78.0	93.2	92.8	6.41	34.8	19.4	0.10	88.3	–	3.45	0.99	0.96	–	–	–	–
CCCCCCCCCOC(=O)C(C)CCCCCCN(CCO)CCCCCCCC(=O)OC(CCCCCCCC)CCCCCCCC (centres unmarked) [Compound 164, Nonyl 8-((8-(heptadecan-9-yloxy)-8-oxooctyl)(2-hydroxyethyl)amino)-2-methyloctanoate]	0.08	75.7	91.2	94.1	6.39	39.0	26.2	0.13	84.5	–	1.24	0.50	0.56	–	–	–	–
CCCCCCCCCOC(=O)CCCCCCCN(CCCCCCCC(=O)OC(CCCCCCCC)CCCCCCCC)CCCN/C(=N/C#N)N(C)C [Compound 168, Heptadecan-9-yl (Z)-8-((3-(2-cyano-3,3-dimethylguanidino)propyl)(8-(nonyloxy)-8-oxooctyl)amino)octanoate]	0.07	87.4	91.4	96.1	6.74	–	–	0.20	102.3	6.90	–	–	–	16.0	–	–	PDI [1, 13]: 0.08; Size (nm) [1, 13]: 85.0 nm; % EE [2, 13]: 95%; flux measured at 6 h relative to the MC3 formulation (luciferase (Luc) mRNA [7]; intramuscular administration (i.m.), in words): sixteen; Novel lipid/MC3 expression ratio, 6 hr. time point, s.c. Luc 0.5 mpk (luciferase mRNA): 0.58; Novel lipid/MC3 expression ratio, 6 hr. time point, s.c. hEPO 0.5 mpk (hEPO mRNA [6]): 2.36

Continued, in another order:

PDI [1, 11]	Size (nm) [1, 11] [nm]	EE (%) ([2]; Table 1A)	% EE [2, 11] [%]	pKa [3]	% Remaining dose at 6 h [5] [%]	% Remaining dose at 24 h [5] [%]	PDI ([1]; Table 1A)	Size (nm) [1, 12] [nm]	App. pKa [3]	Structure (SMILES)	6 h BLI Lipid/MC3 (luciferase (Luc) mRNA [4])	hEPO expression Lipid/Compound 18 ratio, 6 hr. (hEPO mRNA [6])	hEPO expression Lipid/Compound 18 ratio, AUC (hEPO mRNA [6])	i.m. Lipid/MC3 0.01 mpk, Luc, 6 h (luciferase (Luc) mRNA [7])	Lipid/MC3 6 h timepoint (hEPO mRNA [8])	Lipid/MC3 AUC (hEPO mRNA [8])	also measured
–	–	99.4	–	6.77.	–	–	0.17	87.4	7.63	CCCCCCCCCOC(=O)CCCCCCCN(CCCCCCCC(=O)OC(CCCCCCCC)CCCCCCCC)CCCNc1c(N(C)C)c(=O)c1=O [Compound 169, Heptadecan-9-yl 8-((3-((2-(dimethylamino)-3,4-dioxocyclobut-1-en-1-yl)amino)propyl)(8-(nonyloxy)-8-oxooctyl)amino)octanoate]	–	–	–	3.3	4.6	4.7	–
–	–	96.7	–	6.31	–	–	0.18	96.0	6.60	CCCCCCCCCOC(=O)CCCCCCCN(CCCCCCCC(=O)OC(CCCCCCCC)CCCCCCCC)CCCN/C(=C/[N+](=O)[O-])NC [Compound 170, Heptadecan-9-yl (E)-8-((3-((1-(methylamino)-2-nitrovinyl)amino)propyl)(8-(nonyloxy)-8-oxooctyl)amino)octanoate]	–	–	–	5.3	5.9	5.7	–
–	–	94.7	–	6.90	–	–	0.12	104.2	–	CCCCCCCCCOC(=O)CCCCCCCN(CCCCCCCC(=O)OC(CCCCCCCC)CCCCCCCC)CCCNC(=O)COC [Compound 178, Heptadecan-9-yl 8-((3-(2-methoxyacetamido)propyl)(8-(nonyloxy)-8-oxooctyl)amino)octanoate]	–	–	–	–	10.4	9.3	Novel lipid/MC3 expression ratio, 6 hr. time point, i.m. Luc (luciferase (Luc) mRNA [7]): 7.14
–	–	97.65	–	–	–	–	0.15	76.2	–	CCCCCCCCCOC(=O)CCCCCCCN(CCCCCCCC(=O)OC(CCCCCCCC)CCCCCCCC)CCCN/C(=N/[N+](=O)[O-])NC [Compound 200, Heptadecan-9-yl (E)-8-((3-(3-methyl-2-nitroguanidino)propyl)(8-(nonyloxy)-8-oxooctyl)amino)octanoate]	–	–	–	–	2.6	2.7	PDI [1, 14]: 0.19; Size (nm) [1, 14]: 95.3 nm; EE (%) [2, 14]: 97.3%; Novel lipid/MC3 expression ratio, 6 hr. time point, i.m. Luc (luciferase (Luc) mRNA [7]): 8.11; AUC (hEPO) (hEPO mRNA [9]): 2.4e+07 pg·h/mL; Lipid/MC3 AUC (hEPO mRNA [9]; relative to MC3): 1.30; [hEPO] (hEPO mRNA [9]; species, dose and time not given): 1.72e+06 pg/mL; % dose remaining, liver, 24 h [10]: 0.36%
0.22	81.4	–	102	–	–	–	–	–	–	CCCCCCCCCOC(=O)CCCCCCCN(CCCCCCCC(=O)OC(CCCCCCCC)CCCCCCCC)CCCNC(=N)N [Compound 207, Heptadecan-9-yl 8-((3-guanidinopropyl)(8-(nonyloxy)-8-oxooctyl)amino)octanoate]	–	–	–	–	–	–	Novel lipid/MC3 expression ratio, 6 hr. time point, s.c. hEPO 0.5 mpk (hEPO mRNA [6]): 0
